# Biological target: T1, full-length human PKCι (Homo sapiens, UniProt P41743)
# T1 construct: Recombinant, full-length human PKCι expressed in Sf21 insect cells is also commercially available; purchased EMD Millipore; host or cells: Sf21 insect cells (baculovirus)
# T1 sequence (P41743 1-596): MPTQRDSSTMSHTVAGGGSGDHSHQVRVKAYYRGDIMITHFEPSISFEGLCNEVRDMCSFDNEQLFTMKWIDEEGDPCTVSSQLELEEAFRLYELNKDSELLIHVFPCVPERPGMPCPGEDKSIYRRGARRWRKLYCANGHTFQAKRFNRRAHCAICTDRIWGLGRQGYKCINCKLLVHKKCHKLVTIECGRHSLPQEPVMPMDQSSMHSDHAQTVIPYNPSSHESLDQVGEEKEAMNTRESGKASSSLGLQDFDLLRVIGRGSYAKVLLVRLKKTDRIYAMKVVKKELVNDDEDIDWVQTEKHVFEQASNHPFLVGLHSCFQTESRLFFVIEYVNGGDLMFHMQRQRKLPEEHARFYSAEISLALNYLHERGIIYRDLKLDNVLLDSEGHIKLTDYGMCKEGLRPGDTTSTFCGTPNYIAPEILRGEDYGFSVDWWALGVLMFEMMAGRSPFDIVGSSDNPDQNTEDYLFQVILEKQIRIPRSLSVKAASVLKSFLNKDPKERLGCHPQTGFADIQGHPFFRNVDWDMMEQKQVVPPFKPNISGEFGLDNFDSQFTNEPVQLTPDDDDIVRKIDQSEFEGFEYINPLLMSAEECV
# Assay: PKCι IC50 IMAP fluorescence polarisation assay, full-length enzyme, 150 μM ATP
# Assay type: biochemical
# Settings: read-out: IC50 in IMAP assay against full length PKCi at 150 μM ATP
# In short: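 IMAP fluorescence polarisation kinase assay: 15 pM baculovirus-expressed human PKCiota with 100 nM FAM-pseudosubstrate peptide and 150 μM ATP, 1 h at 25 °C. IMAP detection reagent then 2 h at 25 °C before FP measurement. Inhibition referenced to no-compound and no-enzyme controls for IC50 fitting.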
row,Structure (SMILES),IC50 [nM]
1,"CC1(C)CNCCC1Nc1nc(-c2ccnc(Nc3ncccc3F)c2)nc2cncc(C3CCC3)c12 (stereo not drawn) [Example 70, {5-Cyclobutyl-2-[2-(3-fluoro-pyridin-2-ylamino)-pyridin-4-yl]-pyrido[3,4-d]pyrimidin-4-yl}-(3,3-dimethyl-piperidin-4-yl)-amine]",< 100
2,"CC1(C)CNCCC1Nc1nc(-c2ccnc(Nc3nc(F)c(F)cc3F)c2)nc2cncc(C3CCC3)c12 (stereo not drawn) [Example 71, {5-Cyclobutyl-2-[2-(3,5,6-trifluoro-pyridin-2-ylamino)-pyridin-4-yl]-pyrido[3,4-d]pyrimidin-4-yl}-(3,3-dimethyl-piperidin-4-yl)-amine]",< 100
3,"CC(C)(C)c1csc(Nc2cc(-c3nc(NC4CCNCC4(C)C)c4c(C5CCC5)cncc4n3)ccn2)n1 (stereo not drawn) [Example 72, {2-[2-(4-tert-Butyl-thiazol-2-ylamino)-pyridin-4-yl]-5-cyclobutyl-pyrido[3,4-d]pyrimidin-4-yl}-(3,3-dimethyl-piperidin-4-yl)-amine]",100 to 1000
4,"OC1CNCCCC1Nc1nc(-c2ccnc3[nH]c4ccccc4c23)nc2cncc(C3CCC3)c12 (stereo not drawn) [Example 73, 4-[5-Cyclobutyl-2-(9H-pyrido[2,3-b]indol-4-yl)-pyrido[3,4-d]pyrimidin-4-ylamino]-azepan-3-ol]",< 100
5,"CN(c1nc(-c2ccnc3[nH]c4ccccc4c23)nc2cncc(C3CCC3)c12)C1CC(N)C1 (stereo not drawn) [Example 74, N-[5-Cyclobutyl-2-(9H-pyrido[2,3-b]indol-4-yl)-pyrido[3,4-d]pyrimidin-4-yl]-N-methyl-cyclobutane-1,3-diamine]",< 100
6,"CN(c1nc(-c2ccnc3[nH]c4ccccc4c23)nc2cncc(C3CCC3)c12)C1CC(N)C1 (stereo not drawn) [Example 75, N-[5-Cyclobutyl-2-(9H-pyrido[2,3-b]indol-4-yl)-pyrido[3,4-d]pyrimidin-4-yl]-N-methyl-cyclobutane-1,3-diamine]",< 100
7,"CN(c1nc(-c2ccnc3[nH]c4ccccc4c23)nc2cncc(C3CCC3)c12)C1CCC(N)C1 (stereo not drawn) [Example 78, N-[5-Cyclobutyl-2-(9H-pyrido[2,3-b]indol-4-yl)-pyrido[3,4-d]pyrimidin-4-yl]-N-methyl-cyclopentane-1,3-diamine]",< 100
8,"CNC(=O)c1cc2c(-c3nc(N4CCNCC4)c4c(C5CC5)cncc4n3)ccnc2[nH]1 [Example 79, 4-(5-Cyclopropyl-4-piperazin-1-yl-pyrido[3,4-d]pyrimidin-2-yl)-1H-pyrrolo[2,3-b]pyridine-2-carboxylic acid methylamide]",< 100
9,"CC1(C)CNCCC1Nc1nc(-c2ccnc(Nc3ccc4ccccc4n3)c2)nc2cncc(C3CCC3)c12 (stereo not drawn) [Example 86, {5-Cyclobutyl-2-[2-(quinolin-2-ylamino)-pyridin-4-yl]-pyrido[3,4-d]pyrimidin-4-yl}-(3,3-dimethyl-piperidin-4-yl)-amine]",< 100
10,"CC1(C)CNCCC1Nc1nc(-c2ccnc(Nc3nc(F)cc(F)c3F)c2)nc2cncc(C3CCC3)c12 (stereo not drawn) [Example 87, {5-Cyclobutyl-2-[2-(3,4,6-trifluoro-pyridin-2-ylamino)-pyridin-4-yl]-pyrido[3,4-d]pyrimidin-4-yl}-(3,3-dimethyl-piperidin-4-yl)-amine]",< 100
11,"CC1(C)CNCCC1Nc1nc(-c2ccnc(Nc3ncc(Cl)cc3F)c2)nc2cncc(C3CCC3)c12 (stereo not drawn) [Example 88, {2-[2-(5-Chloro-3-fluoro-pyridin-2-ylamino)-pyridin-4-yl]-5-cyclobutyl-pyrido[3,4-d]pyrimidin-4-yl}-(3,3-dimethyl-piperidin-4-yl)-amine]",< 100
12,"CC1(C)CNCCC1Nc1nc(-c2ccnc(Nc3nccc4ccccc34)c2)nc2cncc(C3CCC3)c12 (stereo not drawn) [Example 89, {5-Cyclobutyl-2-[2-(isoquinolin-1-ylamino)-pyridin-4-yl]-pyrido[3,4-d]pyrimidin-4-yl}-(3,3-dimethyl-piperidin-4-yl)-amine]",< 100
13,"CC1(C)CNCCC1Nc1nc(-c2ccnc(Nc3ccc(OC(F)(F)F)cc3)c2)nc2cncc(C3CCC3)c12 (stereo not drawn) [Example 90, {5-Cyclobutyl-2-[2-(4-trifluoromethoxy-phenylamino)-pyridin-4-yl]-pyrido[3,4-d]pyrimidin-4-yl}-(3,3-dimethyl-piperidin-4-yl)-amine]",100 to 1000
14,"CC1(C)CNCCC1Nc1nc(-c2ccnc(Nc3ccccc3)c2)nc2cncc(C3CCC3)c12 (stereo not drawn) [Example 91, [5-Cyclobutyl-2-(2-phenylamino-pyridin-4-yl)-pyrido[3,4-d]pyrimidin-4-yl]-(3,3-dimethyl-piperidin-4-yl)-amine]",< 100
15,"CC1(C)CNCCC1Nc1nc(-c2ccnc(Nc3cccnc3F)c2)nc2cncc(C3CCC3)c12 (stereo not drawn) [Example 92, {5-Cyclobutyl-2-[2-(2-fluoro-pyridin-3-ylamino)-pyridin-4-yl]-pyrido[3,4-d]pyrimidin-4-yl}-(3,3-dimethyl-piperidin-4-yl)-amine]",< 100
16,"CC1(C)CNCCC1Nc1nc(-c2ccnc(Nc3c(F)cccc3F)c2)nc2cncc(C3CCC3)c12 (stereo not drawn) [Example 93, {5-Cyclobutyl-2-[2-(2,6-difluoro-phenylamino)-pyridin-4-yl]-pyrido[3,4-d]pyrimidin-4-yl}-(3,3-dimethyl-piperidin-4-yl)-amine]",< 100
17,"Cc1cc2c(-c3nc(N4CCCC5NCCCC54)c4c(C5CC5)cncc4n3)ccnc2[nH]1 (stereo not drawn) [Example 94, 5-Cyclopropyl-2-(2-methyl-1H-pyrrolo[2,3-b]pyridin-4-yl)-4-(octahydro-[1,5]naphthyridin-1-yl)-pyrido[3,4-d]pyrimidine]",< 100
18,"Cc1cc2c(-c3nc(N4CCCC5NCCCC54)c4c(C5CCC5)cncc4n3)ccnc2[nH]1 (stereo not drawn) [Example 95, 5-Cyclobutyl-2-(2-methyl-1H-pyrrolo[2,3-b]pyridin-4-yl)-4-(octahydro-[1,5]naphthyridin-1-yl)-pyrido[3,4-d]pyrimidine]",< 100
19,"CC1(C)CNCCC1Nc1nc(-c2ccnc(NCc3c(F)cccc3F)c2)nc2cncc(C3CCC3)c12 (stereo not drawn) [Example 96, {5-Cyclobutyl-2-[2-(2,6-difluoro-benzylamino)-pyridin-4-yl]-pyrido[3,4-d]pyrimidin-4-yl}-(3,3-dimethyl-piperidin-4-yl)-amine]",< 100
20,"Fc1ccc(F)c(Nc2cc(-c3nc(N4CCC5NCCC54)c4c(C5CCC5)cncc4n3)ccn2)n1 (stereo not drawn) [Example 97, {4-[5-Cyclobutyl-4-(hexahydro-pyrrolo [3,2-b]pyrrol-1-yl)-pyrido[3,4-d]pyrimidin-2-yl]-pyridin-2-yl}-(3,6-difluoro-pyridin-2-yl)-amine]",< 100
21,"Fc1cc(F)c(Nc2cc(-c3nc(N4CCC5NCCC54)c4c(C5CCC5)cncc4n3)ccn2)nc1F (stereo not drawn) [Example 98, {4-[5-Cyclobutyl-4-(hexahydro-pyrrolo[3,2-b]pyrrol-1-yl)-pyrido[3,4-d]pyrimidin-2-yl]-pyridin-2-yl}-(3,5,6-trifluoro-pyridin-2-yl)-amine]",< 100
22,"CNC(=O)c1cc2c(-c3nc(N4CCC5CNCCC54)c4c(C5CC5)cncc4n3)ccnc2[nH]1 (stereo not drawn) [Example 99, 4-[5-Cyclopropyl-4-(octahydro-pyrrolo[3,2-c]pyridin-1-yl)-pyrido[3,4-d]pyrimidin-2-yl]-1H-pyrrolo[2,3-b]pyridine-2-carboxylic acid methylamide]",< 100
23,"Cc1cc2c(-c3nc(NC4CCNCC4(C)C)c4c(C5CC5)cncc4n3)ccnc2[nH]1 (stereo not drawn) [Example 100, [5-Cyclopropyl-2-(2-methyl-1H-pyrrolo[2,3-b]pyridin-4-yl)-pyrido[3,4-d]pyrimidin-4-yl]-(3,3-dimethyl-piperidin-4-yl)-amine]",< 100
24,"Cc1cc2c(-c3nc(NC4CCNCC4(C)C)c4c(C5CCC5)cncc4n3)ccnc2[nH]1 (stereo not drawn) [Example 101, [5-Cyclobutyl-2-(2-methyl-1H-pyrrolo[2,3-b]pyridin-4-yl)-pyrido[3,4-d]pyrimidin-4-yl]-(3,3-dimethyl-piperidin-4-yl)-amine]",< 100
25,"c1ccc(Nc2cc(-c3nc(N4CCC5NCCC54)c4c(C5CCC5)cncc4n3)ccn2)cc1 (stereo not drawn) [Example 102, {4-[5-Cyclobutyl-4-(hexahydro-pyrrolo[3,2-b]pyrrol-1-yl)-pyrido[3,4-d]pyrimidin-2-yl]-pyndin-2-yl}-phenyl-amine]",< 100
26,"Clc1ccc(Cl)c(-c2cc3c(-c4nc(N5CCC6NCCC65)c5c(C6CC6)cncc5n4)ccnc3[nH]2)c1 (stereo not drawn) [Example 103, 5-Cyclopropyl-2-[2-(2,5-dichloro-phenyl)-1H-pyrrolo[2,3-b]pyridin-4-yl]-4-(hexahydro-pyrrolo[3,2-b]pyrrol-1-yl)-pyrido[3,4-d]pyrimidine]",< 100
27,"CC1(C)CNCCC1Nc1nc(-c2ccnc(Nc3cc(F)cc(F)n3)c2)nc2cncc(C3CCC3)c12 (stereo not drawn) [Example 105, {5-Cyclobutyl-2-[2-(4,6-difluoro-pyridin-2-ylamino)-pyridin-4-yl]-pyrido[3,4-d]pyrimidin-4-yl}-(3,3-dimethyl-piperidin-4-yl)-amine]",100 to 1000

# — patent US10414763B2 (CANCER RESEARCH TECHNOLOGY LIMITED, priority 2014, dated 2019)
